Experimental data as given in patent EP1285920A1, “C10 Ester sustituted taxanes as antitumor agents” (Florida State University Research Foundation, Inc., priority 2001, dated 2003).
Like-named read-outs stand apart in the source and are kept apart here. Marks after values point to notes of the source that are not given here.

How the values were obtained:
[1] = system: blood cell populations; assay: Effect of oral treatment on blood cell populations and body weight in the MX-1 study (Example 22); assay type: in vivo, nu/nu mice; design: neutrophil reduction: concentration or dose not given beside the values; settings: for % Reduction (Monocytes) / % Reduction (Neutrophils): Day 4, vs vehicle; for % Reduction (Monocytes) / % Reduction (Neutrophils) / Monocytes (K/µL) / Neutrophils (K/µL) / Maximum Weight Loss (Day): mg/kg: 0499 80, 0550 73, 0611 113, 0748 200; for Monocytes (K/µL) / Neutrophils (K/µL): Day 4; for Monocytes (K/µL) / Neutrophils (K/µL) / Maximum Weight Loss (Day): single oral bolus Day 1; for Maximum Weight Loss (Day): body weight, day of maximum in parentheses in the cell
Description: (§1) Antitumor compounds were administered orally in a study to investigate whether such a formulation is efficacious against the MX-1 human breast carcinoma xenograft. Antitumor compound 0499 was formulated as Solution 1 in Example 6. Antitumor compound 0550 was formulated as Solution 2 in Example 6. Antitumor compound 0611 was formulated as Solution 3 in Example 6. Antitumor compound 0748 was formulated as Solution 4 in Example 6. Other antitumor compounds were formulated similarly. The compounds were prepared in a vehicle of 90% saline, 5% Cremophor, and 5% ethanol.
(§2) Female nu/nu mice (11-12 weeks of age; implanted subcutaneously with 1 mm^3 MX-1 human breast carcinoma fragments in the flank) were sorted into one control group (n=10) and four treatment (n=6) groups (group mean tumor size of 47-49 mg). The study was terminated on Day 63.
In addition to survival and tumor regression responses, the effect of treatment on blood cell populations was assessed. The major effect of these antitumor compounds on blood cell populations was a marked reduction in the neutrophil cell number. As well, monocyte depletion correlated fairly well with neutrophil reduction for each antitumor compound. […] There was a correlation between antitumor activity and reduced neutrophil count. In general, toxicity (as determined by neutrophil depletion) and weight loss correlated with efficacy. […] Importantly, the toxicities observed with the very efficacious antitumor compounds were manageable and reversible; neutrophil count and body weight rebounded from their low points in just a few days. Table 20 summarizes the weight reduction, neutrophil and monocyte measurements on Day 4, with tumor weight reduction calculated at Day 18: Table 20

[2] = system: HCT116; assay: In Vitro cytotoxicity measured by the cell colony formation assay; assay type: cell-based, human; settings: Homo sapiens, HCT-116; read-out: IN VITRO ID 50 HCT116
In short: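 Four hundred cells per dish in McCoy's 5a medium with 10% FBS were allowed to attach for 5 h at 37 °C. They were then exposed to compound for 72 h at 37 °C, added as a 10× stock made fresh in medium. After HBSS rinsing and refeeding, colonies were counted after 7 days.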

[3] = system: MX-1 human breast carcinoma; assay type: in vivo; settings: for complete tumor regressions: MX-1, six mice per group (0611: five evaluable), ended Day 63; for complete tumor regressions / Toxic Deaths / Complete Response / Partial Response / Stable Disease: single oral bolus Day 1; for Toxic Deaths / Complete Response / Partial Response / Stable Disease: number of mice, mg/kg: 0499 80, 0550 73, 0611 113, 0748 200, 6 mice/group; for Complete Response / Partial Response / Stable Disease: Day 63; for % Reduction (Weight): po, 432 h
Description: as §1, §2

[4] = system: Panc-1 pancreatic carcinoma; assay: In vivo evaluation against Panc-1 human pancreatic carcinoma (Example 17); settings: i.v. qd x 1
Description: (§3) The dosing volume was 0.3 ml per 20 g mouse.
Female NCr-nude mice were implanted subcutaneously with 1 mm^3 Panc-1 pancreatic carcinoma fragments in the flank and sorted into treatment groups of six mice each. […] Dosing was initiated on Day 1. The antitumor compounds were given i.v. at an estimated maximum tolerated dose (MTD) appropriate for each agent on a qd x 1 schedule (single administration of compound). […] The vehicle was administered i.v. to control mice in Group 1 on the qd x 1 schedule. The study was terminated on Day 60.
(§4) The mean days of survival is the number of days after which a neoplasm reached a size of 1.5 g and the animal was euthanized. A complete response is obtained if the tumor shrinks to a size smaller than its size on Day 1 of the study.

[5] = system: A375 melanoma; settings: for mean group weight losses: A375, i.v. qd x 1; for Toxic Deaths / Survivors: number of mice, i.v. qd x 1 at estimated MTD (Taxol 24 mg/kg, Taxotere 70 mg/kg), 6 mice/group (Taxotere 7); for Survivors: Day 60
Description: Dosing was initiated on Day 1. […] Taxotere was given i.v. on a qd x 1 schedule at a dose of 70 mg/kg. […] The study was terminated on Day 60. Treatment groups are detailed in Table 9.

[6] = system: Panc-1 pancreatic carcinoma; settings: for Mean Score: iv
Description: as §3
Female NCr-nude mice were implanted subcutaneously with 1 mm^3 Panc-1 pancreatic carcinoma fragments in the flank and sorted into treatment groups of six mice each. […] Dosing was initiated on Day 1. The antitumor compounds were given i.v. at an estimated maximum tolerated dose (MTD) appropriate for each agent on a qd x 1 schedule (single administration of compound). […] The vehicle was administered i.v. to control mice in Group 1 on the qd x 1 schedule.
as §4

[7] = system: VM46 colon carcinoma
Description: Dosing was initiated on Day 1. […] Taxotere was given i.v. at a dose of 70 mg/kg on a qd x 1 schedule.

[8] = system: DU145 prostate carcinoma; settings: for Toxic Deaths / Survivors: number of 5 mice, Day 91; for Toxic Deaths: i.v. qd x 1 at estimated MTD (Taxol 24 mg/kg as two split doses); for Survivors: i.v. qd x 1 at estimated MTD (Taxol 24 mg/kg split)
Text: Dosing was initiated on Day 1. […] Treatment groups are detailed in Table 5.

[9] = system: MX-1 carcinoma
In short: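 Mice dosed with a single i.v. bolus (qd x 1) at each compound's MTD, formulated in 5% ethanol, 5% Cremophor, 90% isotonic saline. Study ended Day 60; complete response = tumor not palpable at study end.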

[10] = system: HCT116 carcinoma
In short: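 Mice bearing HCT116 tumours received a single i.v. maximum tolerated dose per compound, formulated in 5% ethanol, 5% Cremophor, 90% isotonic saline. Study ended on Day 60; complete response meant no palpable tumour at study end.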

[11] = system: A2780 ovarian carcinoma
Description: Dosing was initiated on Day 1. […] Taxotere was given i.v. on a qd x 1 schedule at a dose of 70 mg/kg. […] The study was terminated on Day 60. Treatment groups are detailed in Table 7.

[12] = number of mice, mg/kg: Taxol 36, 0499 77, 0503 72.6, 0670 123.1, 0706 107.6, 0838 72.6, 0854 76.9, 6 mice/group, Day 60
[13] = number of mice, i.v. qd x 1, mg/kg: Taxol 24, 0854 46.6, 1011 107.6, 6 mice/group
[14] = number of mice, i.v. qd x 1, mg/kg: Taxol 24, 0854 46.6, 1011 107.6, 6 mice/group, Day 63
[15] = number of mice, i.v. qd x 1, mg/kg: Taxol 24, 0499 77, 0503 72.6, 0670 123.1, 0706 107.6, 0838 72.6, 0854 46.6, 0983 67.4, Taxotere 70, 6 mice/group, Day 64
[16] = Panc-1 (Example 18), i.v. qd x 1, six mice per group
[17] = A2780, i.v. qd x 1, five mice per group

Compound: CCC(=O)O[C@H]1C(=O)[C@@]2(C)[C@H]([C@H](OC(=O)c3ccccc3)[C@]3(O)C[C@H](OC(=O)[C@H](O)[C@@H](NC(=O)OC(C)(C)C)c4cccs4)C(C)=C1C3(C)C)[C@]1(OC(C)=O)CO[C@@H]1C[C@@H]2O [Compound 0550]
- % Reduction (Monocytes) ([1]; single oral bolus): 80.2%
- % Reduction (Neutrophils) ([1]; single oral bolus): 95.9%
- Monocytes (K/µL) [1]: 0.019 K/µL
- Neutrophils (K/µL) [1]: 0.037 K/µL
- neutrophil reduction ([1]; MX-1 study, single oral bolus, day 4): 95.9%
- body weight loss ([1]; MX-1 study, single oral bolus, day 5): 16.1%
- Maximum Weight Loss (Day) [1]: -16.1% (5)
- IC50 [2]: < 10 nM
- complete tumor regressions [3]: six
- Toxic Deaths [3]: 0
- Complete Response [3]: 6
- Partial Response [3]: 0
- Stable Disease [3]: 0
- % Reduction (Weight) [3]: 100.0%

Compound: CCC(=O)O[C@H]1C(=O)[C@@]2(C)[C@H]([C@H](OC(=O)c3ccccc3)[C@]3(O)C[C@H](OC(=O)[C@H](O)[C@@H](NC(=O)OC(C)(C)C)c4ccccc4)C(C)=C1C3(C)C)[C@]1(OC(C)=O)CO[C@@H]1C[C@@H]2O [Compound 0611]
- % Reduction (Monocytes) ([1]; single oral bolus): 56.3%
- % Reduction (Neutrophils) ([1]; single oral bolus): 93.7%
- Monocytes (K/µL) [1]: 0.042 K/µL
- Neutrophils (K/µL) [1]: 0.057 K/µL
- Maximum Weight Loss (Day) [1]: -15.0% (5)
- IC50 [2]: < 10 nM
- complete tumor regressions [3]: four
- Toxic Deaths [3]: 1^a
- Complete Response [3]: 4
- Partial Response [3]: 0
- Stable Disease [3]: 0
- % Reduction (Weight) [3]: 100.0%

Compound: CC(=O)O[C@@]12CO[C@@H]1C[C@H](O)[C@@]1(C)C(=O)[C@H](OC(=O)C3CC3)C3=C(C)[C@@H](OC(=O)[C@H](O)[C@@H](NC(=O)OC(C)(C)C)c4cccs4)C[C@@](O)([C@@H](OC(=O)c4ccccc4)[C@H]21)C3(C)C [Compound 0854]
- Toxic Deaths ([4]; Panc-1 (Example 17), six mice per group): six
- Toxic Deaths ([4]; number of mice, mg/kg: Taxol 36, 0499 77, 0503 72.6, 0670 123.1, 0706 107.6, 0838 72.6, 0854 76.9, 6 mice/group): 6
- Complete Response [4, 12]: 0
- Partial Response [4, 12]: 2
- Stable Disease [4, 12]: 0
- Mean Score ([4]; tumor scoring system, mg/kg: Taxol 36, 0499 77, 0503 72.6, 0670 123.1, 0706 107.6, 0838 72.6, 0854 76.9, 6 mice/group): 0 ± 0
- mean group weight losses [5]: 20 - 30%
- Toxic Deaths [5]: 6
- Survivors [5]: 0
- Mean Score [6]: 0 ± 0
- Toxic Deaths [6, 13]: 6
- Complete Response [6, 14]: 0
- Partial Response [6, 14]: 0
- Stable Disease [6, 14]: 0
- response rate ([7]; VM46, i.v. qd x 1 at estimated MTD): 16.7-40%
- Mean Score ([7]; iv): 4.7 ± 1.6
- MDS (n) ([7]; iv, 1536 h): 52.9 ± 6.6 (2) days
- maximal mean weight loss ([7]; mouse, in vivo, iv): under 12%
- Toxic Deaths ([7]; number of mice, i.v. qd x 1, mg/kg: Taxol 24, 0499 77, 0503 72.6, 0670 123.1, 0706 107.6, 0838 72.6, 0854 46.6, 0983 67.4, Taxotere 70, 6 mice/group): 1
- Complete Response [7, 15]: 0
- Partial Response [7, 15]: 2
- Stable Disease [7, 15]: 1
- Survivors [7, 15]: 3
- Toxic Deaths [8]: 5
- Survivors [8]: 0
- IC50 [2]: < 1 nM

Compound: CCCC(=O)O[C@H]1C(=O)[C@@]2(C)[C@H]([C@H](OC(=O)c3ccccc3)[C@]3(O)C[C@H](OC(=O)[C@H](O)[C@@H](NC(=O)OC(C)(C)C)c4ccsc4)C(C)=C1C3(C)C)[C@]1(OC(C)=O)CO[C@@H]1C[C@@H]2O [Compound 1011]
- mean group weight losses [5]: 20 - 30%
- Toxic Deaths [5]: 3
- Survivors [5]: 0
- partial responses [6, 16]: three
- toxic deaths / toxic lethalities [6, 16]: three
- overall response rate ([6]; Panc-1 (Example 18), i.v. qd x 1 at estimated MTD): 100%
- Mean Score [6]: 4 ± 1.8
- Toxic Deaths [6, 13]: 3
- Complete Response [6, 14]: 0
- Partial Response [6, 14]: 3
- Stable Disease [6, 14]: 0
- Survivors [6, 14]: 3
- Partial Response ([9]; iv): 0
- Complete Response ([9]; iv, 1440 h): 6
- Mean Score ([9]; iv, 1440 h): 10 ± 0
- Stable Disease ([9]; iv, 1440 h): 0
- Survivors ([9]; number of 6 mice, i.v. qd x 1 at MTD, Day 60, doses as in E17): 6
- Toxic Deaths ([9]; number of 6 mice, i.v. qd x 1 at MTD, Day 60, mg/kg: Taxol 36 (split dose), 0503 72.6, 0536 49, 0663 159, 0670 123, 0687 159, 0706 108, 0908 159, 0947 76.9, 0951 72.6, 0983 67.4, 0999 49, 1003 49, 1011 108): 0
- mortality rate ([8]; DU145, i.v. qd x 1 at the administered dose, five animals): ≥ 40%
- Toxic Deaths [8]: 3
- Survivors [8]: 0
- IC50 [2]: < 1 nM
- Partial Response ([10]; iv): 2
- Complete Response ([10]; iv, 1440 h): 3
- Mean Score ([10]; iv, 1440 h): 9.6 ± 0.2
- Stable Disease ([10]; iv, 1440 h): 0
- Survivors ([10]; number of 5 mice, i.v. qd x 1 at MTD, Day 60, doses as in E3): 5
- Toxic Deaths ([10]; number of 5 mice, i.v. qd x 1 at MTD, Day 60, mg/kg: Taxol 36 (split doses), 0503 72.6, 0536 49, 0663 159, 0670 123, 0687 159, 0706 108, 0908 159, 0947 76.9, 0951 72.6, 0983 72.6, 0999 49, 1003 49, 1011 108): 0
- maximal mean group weight loss ([11]; A2780, i.v. qd x 1, Day 5): 11.3%
- Complete Response [11, 17]: 1
- Toxic Deaths [11, 17]: no toxic deaths
- partial responses [11, 17]: 3
- tolerability / toxicity ([11]; mouse, in vivo, iv): well-tolerated
